# In publication PMC8705538, “Discovery of SARS-CoV-2 Nsp14 and Nsp16 Methyltransferase Inhibitors by High-Throughput Virtual Screening” (Pharmaceuticals, 2021):
# Like-named read-outs stand apart in the source and are kept apart here.
# Tests used:
# SARS-CoV-2 nsp16/nsp10 = SARS-CoV-2 nsp16/nsp10 (Severe acute respiratory syndrome coronavirus 2, UniProt P0DTD1); test: biochemical; settings: for Ligand Efficiency (LE) nsp16: estimated from IC50 values
# [1] = biological target: T1, human Glycine N-Methyltransferase (GNMT) (Homo sapiens, UniProt Q14749); test: HTRF methyltransferase selectivity assay, human GNMT; format: biochemical; settings: for Ligand Efficiency (LE) Human (hMtase): estimated from IC50 values
# T1 construct: purchased MyBioSource MBS636160
# T1 sequence (Q14749 1-295): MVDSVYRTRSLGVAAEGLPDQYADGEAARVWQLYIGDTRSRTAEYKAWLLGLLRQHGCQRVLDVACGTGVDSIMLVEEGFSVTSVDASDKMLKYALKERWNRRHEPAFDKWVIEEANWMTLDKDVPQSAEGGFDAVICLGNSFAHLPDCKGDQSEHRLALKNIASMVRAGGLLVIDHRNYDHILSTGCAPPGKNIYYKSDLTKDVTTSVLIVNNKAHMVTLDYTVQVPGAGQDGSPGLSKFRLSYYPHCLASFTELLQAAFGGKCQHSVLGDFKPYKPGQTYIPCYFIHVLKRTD
# SARS-CoV-2 nsp14 = SARS-CoV-2 nsp14 (Severe acute respiratory syndrome coronavirus 2, UniProt P0DTD1); test: biochemical; settings: for Ligand Efficiency (LE) nsp14: estimated from IC50 values
# [2] = HTRF, nsp16/nsp10, SAM 10 µM, m7GpppA-RNA, read-out: IC50 nsp16
# [3] = HTRF, SAM 10 µM, glycine 5 mM, read-out: IC50 Human (hMtase, human glycine N-methyltransferase)
# [4] = HTRF, SAM 10 µM, GpppG 4 µM, read-out: IC50 nsp14
SMILES,"Percent inhibition at 100 μM, nsp16 (SARS-CoV-2 nsp16/nsp10)","Percent inhibition at 100 μM, Human [1]","Percent inhibition at 100 μM, nsp14 (SARS-CoV-2 nsp14)",also measured
CC(C)(C)c1csc(SCC(=O)Nc2cccc3nsnc23)n1 [Compound 009-639-090],43 ±7%,61 ±9%,16 ±1%,–
O=C(CSc1nc(CC(=O)Nc2cccc3nsnc23)cs1)Nc1ccc(F)cc1 [Compound 009-741-602],45 ±5%,24 ±7%,25 ±2%,–
CN(CCNc1nc2c(c(=O)[nH]1)Cc1ccccc1OC2)S(C)(=O)=O [Compound 028-736-920],-4 ±3%,42 ±2%,8 ±5%,–
"Nc1ncnc2c1ncn2[C@@H]1O[C@H](CSCC[C@H](N)C(=O)O)[C@@H](O)[C@H]1O [S-(5′-Adenosyl)-L-homocysteine (SAH), S-(5′-Adenosyl)-L-homocysteine, reference compound]",–,–,–,IC50 (SARS-CoV-2 nsp16/nsp10): 0.28 µM; Ligand Efficiency (LE) nsp16 (SARS-CoV-2 nsp16/nsp10): 0.32 kcal/mol; IC50 [1]: 1.7 µM; Ligand Efficiency (LE) Human (hMtase) [1]: 0.28 kcal/mol; IC50 (SARS-CoV-2 nsp14): 0.14 µM; Ligand Efficiency (LE) nsp14 (SARS-CoV-2 nsp14): 0.33 kcal/mol
Nc1ncnc2c1ncn2[C@@H]1O[C@H](C(=O)NC2CC2)[C@@H](O)[C@H]1O [ZINC000004475116],54 ±10%,56 ±1%,32 ±6%,–
NC1=NC(c2ccccc2)n2c(nc(=O)c3ccccc32)N1 (centres unmarked) [ZINC000008994271],39 ±3%,-3 ±6%,19 ±10%,–
Cc1ncsc1CCC(=O)N1CCCC(C(=O)c2ccc3c4c(cccc24)CC3)C1 (centres unmarked) [ZINC000012755219],40 ±8%,61 ±4%,9 ±5%,–
CC(=O)N1N=C(c2ccc3c(c2)OCO3)CC1c1cn(-c2ccccc2)nc1C (centres unmarked) [ZINC000012821397],15 ±5%,-5 ±2%,27 ±5%,–
Nc1ncnc2c1ncn2[C@@H]1O[C@H](C(=O)N2CCN(CC(=O)Nc3cccc4c3CNC4=O)CC2)[C@@H](O)[C@H]1O [ZINC000017654909],65 ±7%,98 ±2%,62 ±2%,"IC50 (SARS-CoV-2 nsp16/nsp10; [2]): 75 ± 4 µM; Ligand Efficiency (LE) nsp16 (SARS-CoV-2 nsp16/nsp10): 0.14 kcal/mol; IC50 [1, 3]: 22.8 µM; Ligand Efficiency (LE) Human (hMtase) [1]: 0.16 kcal/mol; IC50 (SARS-CoV-2 nsp14; [4]): 75 ± 4 µM; Ligand Efficiency (LE) nsp14 (SARS-CoV-2 nsp14): 0.14 kcal/mol"
Cc1nc2ccc(Cl)cc2cc1C(=O)Nc1ccc(C(N)=O)cc1 [ZINC000019718669],66 ±9%,52 ±4%,49 ±16%,–
CC(=O)N1N=C(c2ccc3c(c2)OCO3)OC1c1cc(-c2ccccc2)nc2ccccc12 (centres unmarked) [ZINC000021941344],36 ±10%,45 ±7%,12 ±4%,–
COc1cc(NC(=O)C2CCN(Cc3nc(-c4cccc(C)c4)no3)CC2)c(OC)cc1Cl [ZINC000030974583],45 ±11%,48 ±8%,19 ±1%,–
NC(=O)CC[C@H](N)C(=O)NS(=O)(=O)OC[C@H]1O[C@@H](n2cnc3c(N)ncnc32)[C@H](O)[C@@H]1O [ZINC000036477981],50 ±11%,89 ±8%,20 ±3%,–
Nc1ncnc2c1ncn2[C@@H]1O[C@H](COC(=O)c2ccc(S(=O)(=O)F)cc2)[C@@H](O)[C@H]1O [ZINC000048222133],42 ±6%,87 ±1%,58 ±2%,"IC50 (SARS-CoV-2 nsp16/nsp10; [2]): 105 ± 6 µM; Ligand Efficiency (LE) nsp16 (SARS-CoV-2 nsp16/nsp10): 0.17 kcal/mol; IC50 [1, 3]: 25.3 µM; Ligand Efficiency (LE) Human (hMtase) [1]: 0.20 kcal/mol; IC50 (SARS-CoV-2 nsp14; [4]): 53 ± 3 µM; Ligand Efficiency (LE) nsp14 (SARS-CoV-2 nsp14): 0.19 kcal/mol"
Cc1ccccc1NC(=O)c1nnn2c1NC(C(=O)O)=CC2c1ccc(C(=O)O)cc1 (centres unmarked) [ZINC000072333096],33 ±12%,17 ±4%,25 ±10%,–
Cc1cc(=O)[nH]c(NCCNC(=O)c2cc(-c3cccn3C)n[nH]2)n1 [ZINC000091693861],24 ±4%,21 ±6%,9 ±6%,–
COc1ccccc1CN1CC(C(=O)NCc2n[nH]c(=O)[nH]2)CCC1=O (centres unmarked) [ZINC000092001674],22 ±12%,44 ±8%,0 ±7%,–

SMILES,"Percent inhibition at 100 μM, nsp16 (SARS-CoV-2 nsp16/nsp10)","Percent inhibition at 100 μM, Human [1]","Percent inhibition at 100 μM, nsp14 (SARS-CoV-2 nsp14)",also measured
Cc1nc(O)cc(CNc2nc3c(c(=O)[nH]2)Cc2ccccc2OC3)n1 [ZINC000095519272],57 ±13%,70 ±3%,49 ±17%,"IC50 (SARS-CoV-2 nsp16/nsp10; [2]): 95 ± 4 µM; Ligand Efficiency (LE) nsp16 (SARS-CoV-2 nsp16/nsp10): 0.21 kcal/mol; IC50 [1, 3]: 53 ± 3 µM; Ligand Efficiency (LE) Human (hMtase) [1]: 0.22 kcal/mol; IC50 (SARS-CoV-2 nsp14; [4]): ~200 µM; Ligand Efficiency (LE) nsp14 (SARS-CoV-2 nsp14): 0.19 kcal/mol"
O=C(CCCn1cnc2ccccc2c1=O)Nc1ccc2ncnc(O)c2c1 [ZINC000096114839],17 ±5%,83 ±6%,28 ±7%,–
CCN(CCSc1ccccc1)C(=O)c1cc(-c2ccncc2)n[nH]1 [ZINC000097636636],19 ±7%,-46 ±2%,5 ±2%,–
CC(C(=O)NCCCn1ccnn1)c1n[nH]c(=O)c2ccccc12 (centres unmarked) [ZINC000215108606],40 ±6%,22 ±6%,9 ±3%,–
O=C(Cn1ccc(=O)c2ccccc21)NCCSc1cnn[nH]1 [ZINC000218615582],51 ±4%,55 ±2%,21 ±3%,–
CN(Cc1cccc2cnccc12)C(=O)CCC1(CCC(=O)O)CCC(=O)N1 (centres unmarked) [ZINC000220483024],31 ±6%,16 ±4%,-5 ±3%,–
CCc1n[nH]c2c1CN(C(=O)c1cccc(-c3cc(O)nc(N)n3)c1)CC2 [ZINC000426470786],8 ±5%,–,1 ±6%,–
CN1CC(=O)N(c2cccc(NC(=O)NC[C@H](O)CO)c2)C1=O [ZINC000426716892],30 ±2%,–,-1 ±2%,–
Cc1cc(-c2ccc(C(=O)NCC(N)=O)cc2)nc(N2CCOCC2)n1 [ZINC000534574506],17 ±8%,–,3 ±3%,–
O=C(CN1C(=O)c2ccccc2N2C(=O)c3ccccc3C12)N1CCc2c([nH]c3ccccc23)C1 (centres unmarked) [ZINC000604419204],-3 ±5%,–,5 ±11%,–
Cc1[nH]c(-c2ccccc2)nc1C(=O)NCc1ccc2[nH]c(=O)[nH]c2c1 [ZINC000680227150],23 ±5%,–,19 ±7%,–
O=C(c1ccc2c3c([nH]c2c1)CCCC3)N1CCC[C@H]1c1nc(-c2ccncc2)no1 [ZINC000952966781],24 ±5%,–,11 ±10%,–
CN(CC1CCN(c2ccccc2)C1)S(=O)(=O)c1ccc2[nH]c(=O)oc2c1 (centres unmarked) [ZINC000952973746],38 ±6%,41 ±1%,27 ±9%,–
O=C(CCc1n[nH]c2c1CCCC2)NCc1cc(O)ncn1 [ZINC000952975967],-24 ±4%,–,2 ±7%,–
O=C(CCc1nc2cc(Cl)ccc2[nH]1)N1CC[C@H](n2c(=O)[nH]c3cccnc32)C1 [ZINC1548405210],15 ±2%,–,6 ±2%,–
CC(=O)c1cnc(NC(C)c2nnc(CC(=O)O)[nH]2)nc1C (centres unmarked) [ZINC1772709012],32 ±8%,–,16 ±13%,–
O=C(C1CCc2sc(-c3ccncc3)nc2C1)N1CCc2c(nc[nH]c2=O)C1 (centres unmarked) [ZINC1772809556],5 ±8%,–,15 ±9%,–
